Target: T1, human full length HSD11β1 (Homo sapiens, UniProt P28845)
T1 construct: transient expression of human full length HSD11β1 expression vector; host or cells: CHO cells, transient transfection
Assay: In Vitro HSD11β1 Inhibition Assay
Format: cell-based
Details: CHO cells transiently expressing human HSD11β1; 200 nM cortisone+500 uM NADPH overnight; cortisone to cortisol by LC/MS-MS; read-out: 11βHSD1 (IC50)
Procedure: In Vitro HSD11β1 Inhibition Assay:
CHO cells were maintained in Dulbecco's modified Eagle's medium/nutrient mixture F-12 containing 5% fetal bovine serum (v/v) and 2 mM glutamine. Cells were cultured at 37° C. with 5% CO2. For transient expression of human full length HSD11β1 expression vector (OriGene Technologies), cells were seeded at a density of 2×10^5 cells/well in a 6-well plate. Transfection was done using Turbofectin8 reagent (OriGene Technologies), according to the protocol provided with the reagent. After 24 hours post-transfection, cells were trypsinized and pooled together before they were re-seeding to 96-well plate at a density of 40000 cells/well. 24 hours after re-seeding, cells were incubated with 200 nM cortisone+500 uM NADPH (or along with small molecule inhibitors) overnight. The enzymatic activity or inhibition of enzyme activity was measured by estimating the conversion of cortisone to cortisol by LC/MS-MS method. The IC50 in nM was calculated from a 8 point log scale of concentration versus inhibition.

T1 sequence (P28845 whole entry): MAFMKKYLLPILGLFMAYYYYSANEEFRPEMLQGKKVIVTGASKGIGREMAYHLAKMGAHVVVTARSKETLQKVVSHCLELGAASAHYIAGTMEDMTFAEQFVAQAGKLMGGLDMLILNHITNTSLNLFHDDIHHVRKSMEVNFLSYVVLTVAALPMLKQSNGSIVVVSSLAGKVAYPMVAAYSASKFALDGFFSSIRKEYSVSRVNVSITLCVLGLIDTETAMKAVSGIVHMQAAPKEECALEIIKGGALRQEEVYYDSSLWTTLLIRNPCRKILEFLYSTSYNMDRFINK

O=C(CC(c1ccc(F)cc1)c1c[nH]c2ccccc12)N1C2CC3CC1CC(O)(C3)C2 (single isomer, unassigned) [Compound 81, 3-(4-fluorophenyl)-1-(5-hydroxy-2-azatricyclo[3.3.1.1^3,7]dec-2-yl)-3-(1H-indol-3-yl)propan-1-one]
IC50: > 0.25 µM

CC(CC(=O)N1C2CC3CC1CC(O)(C3)C2)c1c[nH]c2cc(F)ccc12 (single isomer, unassigned) [Compound 97, 3-(6-fluoro-1H-indol-3-yl)-1-(5-hydroxy-2-azatricyclo[3.3.1.1^3,7]dec-2-yl)butan-1-one]
IC50: > 0.25 µM

CC(CC(=O)N1C2CC3CC1CC(O)(C3)C2)c1c[nH]c2cc(F)ccc12 (single isomer, unassigned) [Compound 98, 3-(6-fluoro-1H-indol-3-yl)-1-(5-hydroxy-2-azatricyclo[3.3.1.1^3,7]dec-2-yl)butan-1-one]
IC50: < 0.1 µM

CC(CC(=O)N1C2CC3CC1CC(O)(C3)C2)c1c[nH]c2cccc(C3CC3)c12 (single isomer, unassigned) [Compound 102, 3-(4-cyclopropyl-1H-indol-3-yl)-1-(5-hydroxy-2-azatricyclo[3.3.1.1^3,7]dec-2-yl)butan-1-one]
IC50: < 0.1 µM

CC(CC(=O)N1C2CC3CC1CC(O)(C3)C2)c1c[nH]c2cccc(C3CC3)c12 (single isomer, unassigned) [Compound 103, 3-(4-cyclopropyl-1H-indol-3-yl)-1-(5-hydroxy-2-azatricyclo[3.3.1.1^3,7]dec-2-yl)butan-1-one]
IC50: > 0.25 µM

CC(CC(=O)N1C2CC3CC1CC(O)(C3)C2)c1nc2ccccc2s1 (single isomer, unassigned) [Compound 115, 3-(1,3-benzothiazol-2-yl)-1-(5-hydroxy-2-azatricyclo[3.3.1.1^3,7]dec-2-yl)butan-1-one]
IC50: 0.2 to 0.25 µM

CC(CC(=O)N1C2CC3CC1CC(C#N)(C3)C2)c1nc2c(Cl)cccc2s1 (single isomer, unassigned) [Compound 124, 2-[3-(4-chloro-1,3-benzothiazol-2-yl)butanoyl]-2-azatricyclo[3.3.1.1^3,7]decane-5-carbonitrile]
IC50: > 0.25 µM

CC(CC(=O)N1C2CC3CC1CC(C#N)(C3)C2)c1nc2c(Cl)cccc2s1 (single isomer, unassigned) [Compound 125, 2-[3-(4-chloro-1,3-benzothiazol-2-yl)butanoyl]-2-azatricyclo[3.3.1.1^3,7]decane-5-carbonitrile]
IC50: > 0.25 µM

COc1cc2c(C(C)CC(=O)N3C4CC5CC3CC(O)(C5)C4)c[nH]c2cc1Cl (single isomer, unassigned) [Compound 129, 3-(6-chloro-5-methoxy-1H-indol-3-yl)-1-(5-hydroxy-2-azatricyclo[3.3.1.1^3,7]dec-2-yl)butan-1-one]
IC50: > 0.25 µM

COc1cc2c(C(C)CC(=O)N3C4CC5CC3CC(O)(C5)C4)c[nH]c2cc1Cl (single isomer, unassigned) [Compound 130, 3-(6-chloro-5-methoxy-1H-indol-3-yl)-1-(5-hydroxy-2-azatricyclo[3.3.1.1^3,7]dec-2-yl)butan-1-one]
IC50: < 0.1 µM

O=C(CC(c1ccccc1)c1c[nH]c2cc(Cl)ccc12)N1C2CC3CC1CC(C(=O)O)(C3)C2 (single isomer, unassigned) [Compound 141, 2-[3-(6-chloro-1H-indol-3-yl)-3-phenylpropanoyl]-2-azatricyclo[3.3.1.1^3,7]decane-5-carboxylic acid]
IC50: 0.1 to 0.15 µM

Cc1c(F)ccc2[nH]cc(C(C)CC(=O)N3C4CC5CC3CC(O)(C5)C4)c12 (single isomer, unassigned) [Compound 147, 3-(5-fluoro-4-methyl-1H-indol-3-yl)-1-(5-hydroxy-2-azatricyclo[3.3.1.1^3,7]dec-2-yl)butan-1-one]
IC50: 0.1 to 0.15 µM

Cc1c(F)ccc2[nH]cc(C(C)CC(=O)N3C4CC5CC3CC(O)(C5)C4)c12 (single isomer, unassigned) [Compound 148, 3-(5-fluoro-4-methyl-1H-indol-3-yl)-1-(5-hydroxy-2-azatricyclo[3.3.1.1^3,7]dec-2-yl)butan-1-one]
IC50: < 0.1 µM

CC(CC(=O)N1C2CC3CC1CC(CC(=O)O)(C3)C2)c1c[nH]c2cccc(C3CC3)c12 (single isomer, unassigned) [Compound 155, {2-[3-(4-cyclopropyl-1H-indol-3-yl)butanoyl]-2-azatricyclo[3.3.1.1^3,7]dec-5-yl}acetic acid]
IC50: 0.1 to 0.15 µM

CC(CC(=O)N1C2CC3CC1CC(CC(=O)O)(C3)C2)c1c[nH]c2cccc(C3CC3)c12 (single isomer, unassigned) [Compound 156, {2-[3-(4-cyclopropyl-1H-indol-3-yl)butanoyl]-2-azatricyclo[3.3.1.1^3,7]dec-5-yl}acetic acid]
IC50: > 0.25 µM

CC(CC(=O)N1C2CC3CC1CC(O)(C3)C2)c1c[nH]c2ccc(F)c(C3CC3)c12 (single isomer, unassigned) [Compound 158, 3-(4-cyclopropyl-5-fluoro-1H-indol-3-yl)-1-(5-hydroxy-2-azatricyclo[3.3.1.1^3,7]dec-2-yl)butan-1-one]
IC50: > 0.25 µM

Cc1ccc2[nH]cc(C(C)CC(=O)N3C4CC5CC3CC(O)(C5)C4)c2c1C (single isomer, unassigned) [Compound 169, 3-(4,5-dimethyl-1H-indol-3-yl)-1-(5-hydroxy-2-azatricyclo[3.3.1.1^3,7]dec-2-yl)butan-1-one]
IC50: < 0.1 µM

CC(CC(=O)N1C2CC3CC1CC(O)(C3)C2)c1c[nH]c2ccc(Cl)c(Cl)c12 (single isomer, unassigned) [Compound 172, 3-(4,5-dichloro-1H-indol-3-yl)-1-(5-hydroxy-2-azatricyclo[3.3.1.1^3,7]dec-2-yl)butan-1-one]
IC50: > 0.25 µM

Cc1ccc2[nH]cc(C(C)CC(=O)N3C4CC5CC3CC(O)(C5)C4)c2c1Cl (single isomer, unassigned) [Compound 174, 3-(4-chloro-5-methyl-1H-indol-3-yl)-1-(5-hydroxy-2-azatricyclo[3.3.1.1^3,7]dec-2-yl)butan-1-one]
IC50: > 0.25 µM

Cc1ccc2[nH]cc(C(C)CC(=O)N3C4CC5CC3CC(O)(C5)C4)c2c1Cl (single isomer, unassigned) [Compound 175, 3-(4-chloro-5-methyl-1H-indol-3-yl)-1-(5-hydroxy-2-azatricyclo[3.3.1.1^3,7]dec-2-yl)butan-1-one]
IC50: < 0.1 µM

CC(C)Oc1cccc2[nH]cc(C(C)CC(=O)N3C4CC5CC3CC(O)(C5)C4)c12 (single isomer, unassigned) [Compound 179, 1-(5-hydroxy-2-azatricyclo[3.3.1.1^3,7]dec-2-yl)-3-[4-(propan-2-yloxy)-1H-indol-3-yl]butan-1-one]
IC50: > 0.25 µM

CC(C)Oc1cccc2[nH]cc(C(C)CC(=O)N3C4CC5CC3CC(F)(C5)C4)c12 (single isomer, unassigned) [Compound 184, 1-(5-fluoro-2-azatricyclo[3.3.1.1^3,7]dec-2-yl)-3-[4-(propan-2-yloxy)-1H-indol-3-yl]butan-1-one]
IC50: < 0.1 µM

CC(C)Oc1cccc2[nH]cc(C(C)CC(=O)N3C4CC5CC3CC(F)(C5)C4)c12 (single isomer, unassigned) [Compound 185, 1-(5-fluoro-2-azatricyclo[3.3.1.1^3,7]dec-2-yl)-3-[4-(propan-2-yloxy)-1H-indol-3-yl]butan-1-one]
IC50: > 0.25 µM

CC(CC(=O)N1C2CC3CC1CC(O)(C3)C2)c1c[nH]c2cccc(-c3cccs3)c12 (single isomer, unassigned) [Compound 189, 1-(5-hydroxy-2-azatricyclo[3.3.1.1^3,7]dec-2-yl)-3-[4-(thiophen-2-yl)-1H-indol-3-yl]butan-1-one]
IC50: > 0.25 µM

CC(CC(=O)N1C2CC3CC1CC(O)(C3)C2)c1nc2ccc(Cl)cc2s1 (single isomer, unassigned) [Compound 194, 3-(6-chloro-1,3-benzothiazol-2-yl)-1-(5-hydroxy-2-azatricyclo[3.3.1.1^3,7]dec-2-yl)butan-1-one]
IC50: < 0.1 µM

CC(CC(=O)N1C2CC3CC1CC(O)(C3)C2)c1nc2ccc(Cl)cc2s1 (single isomer, unassigned) [Compound 195, 3-(6-chloro-1,3-benzothiazol-2-yl)-1-(5-hydroxy-2-azatricyclo[3.3.1.1^3,7]dec-2-yl)butan-1-one]
IC50: > 0.25 µM

CC(CC(=O)N1C2CC3CC1CC(O)(C3)C2)c1c[nH]c2ncc(Cl)c(C3CC3)c12 (single isomer, unassigned) [Compound 200, 3-(5-chloro-4-cyclopropyl-1H-pyrrolo[2,3-b]pyridin-3-yl)-1-(5-hydroxy-2-azatricyclo[3.3.1.1^3,7]dec-2-yl)butan-1-one]
IC50: > 0.25 µM

CC(CC(=O)N1C2CC3CC1CC(O)(C3)C2)c1c[nH]c2ccccc12 (single isomer, unassigned) [Example 21, 1-(5-hydroxy-2-azatricyclo[3.3.1.1^3,7]dec-2-yl)-3-(1H-indol-3-yl)butan-1-one]
IC50: > 0.25 µM

CC(CC(=O)N1C2CC3CC1CC(O)(C3)C2)c1c[nH]c2ccccc12 (single isomer, unassigned) [Example 22, 1-(5-hydroxy-2-azatricyclo[3.3.1.1^3,7]dec-2-yl)-3-(1H-indol-3-yl)butan-1-one]
IC50: > 0.25 µM

CC(CC(=O)N1C2CC3CC1CC(O)(C3)C2)c1c[nH]c2cccc(F)c12 (single isomer, unassigned) [Example 27, 3-(4-fluoro-1H-indol-3-yl)-1-(5-hydroxy-2-azatricyclo[3.3.1.1^3,7]dec-2-yl)butan-1-one]
IC50: > 0.25 µM

From patent US9303016B2, “Derivatives of aza adamantane and uses thereof” (CONNEXIOS LIFE SCIENCES PVT. LTD., priority 2011, dated 2016)
